Test results: ChEMBL document CHEMBL1125682, “Novel synthesis and biochemical properties of an [125I]-labeled photoaffinity probe for thromboxane A2/prostaglandin H2 receptors” (J Med Chem, 1991)

Experiments:
Thromboxane A2 receptor [1] = target: T1, Thromboxane A2 receptor (Homo sapiens, UniProt P21731); assay: Binding affinity towards Thromboxane A2/ Prostaglandin H2 receptor in human platelet membranes using [125I]- as the radioligand.; type: cell membranes
T1 sequence (P21731 whole entry): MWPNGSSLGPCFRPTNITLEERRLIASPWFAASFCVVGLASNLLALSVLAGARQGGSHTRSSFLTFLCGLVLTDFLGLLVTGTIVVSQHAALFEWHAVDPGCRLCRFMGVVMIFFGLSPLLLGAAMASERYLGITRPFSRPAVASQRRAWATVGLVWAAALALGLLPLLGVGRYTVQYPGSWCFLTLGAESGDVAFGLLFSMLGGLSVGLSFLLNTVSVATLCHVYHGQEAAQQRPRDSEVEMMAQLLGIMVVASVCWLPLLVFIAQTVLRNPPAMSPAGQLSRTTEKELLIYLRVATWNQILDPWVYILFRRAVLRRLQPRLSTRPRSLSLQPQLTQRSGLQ

Thromboxane A2 receptor [2] = target: T1, Thromboxane A2 receptor; assay: Binding affinity towards Thromboxane A2 receptor/Prostaglandin receptor in human platelet membranes using [125I]- as the radioligand; type: cell membranes

IC50 (Thromboxane A2 receptor [1]) | IC50 (Thromboxane A2 receptor [2]) | Structure (SMILES)
1500 nM | – | O=C(O)C[C@@H]1CCCc2c1n(Cc1ccc(Cl)cc1)c1ccc(F)cc21 (stereo in doubt; L-657926)
– | 50 nM | O=C(O)CCC/C=C\C[C@@H]1[C@@H](/C=C/[C@@H](O)COc2ccc(I)cc2)[C@H]2CC[C@@H]1O2
11.2 nM | – | O=C(O)C[C@@H]1CCCc2c1n(Cc1ccc(Cl)cc1)c1ccc(F)cc21 (stereo in doubt; L-657925)
